For one compound, mortality results are on record in US20260206751A1, “NOVEL BICYCLIC-CARBOXAMIDE COMPOUNDS USEFUL AS PESTICIDES” (SYNGENTA CROP PROTECTION AG, priority 2022, published 2026).

The subject of the assay is Tetranychus urticae (Two-Spotted Spider Mite). The assay can be described thus: Tetranychus urticae (two-spotted spider mite) feeding/contact activity. It counts as in vivo. The conditions noted are these: foliar, 192 h, application rate 200 ppm, sprayed bean leaf discs, mite population of mixed ages (mobile stages), 8 days after infestation. As to the method:
Example B9: Tetranychus urticae (Two-Spotted Spider Mite): Feeding/Contact Activity
Bean leaf discs on agar in 24-well microtiter plates were sprayed with aqueous test solutions prepared from 10,000 ppm DMSO stock solutions. After drying the leaf discs were infested with a mite population of mixed ages. The samples were assessed for mortality on mixed population (mobile stages) 8 days after infestation.

What is called mortality is the percentage killed. Lower therefore signals more survivors. The compound `Cc1c(OC[C@H](C)NS(=O)(=O)C(Cl)Cl)cc(C(=O)NC2CC2)c2c1CCC2` [P-34, N-cyclopropyl-6-[(2S)-2-(dichloromethylsulfonylamino)propoxy]-7-methyl-indane-4-carboxamide] returned a mortality at 200 ppm not below 80%.
